The values that follow are results of earlier work, collected in US20130195996A1, “METHOD OF PRODUCING PLEURODESIS” (CAREFUSION 2200, INC., priority 2010, published 2013).

Each structure is given as a SMILES string.

Data set [1] relates to rabbits.
Data set [2] concerns rabbits. As to conditions: single dosage administration of 0.1% silver nitrate (Marchi et al. 2005).
For data set [3] the following is noted: known methods, high dosages such as 10% concentration (typically 200 mg AgNO3), single dosage.
[4] abbreviates: 2 mL of 0.25% silver nitrate (Vargas et al. 2001).

Consider `O=[N+]([O-])[O-].[Ag+]` [silver nitrate], for which, in the data set on rabbits [1] (setting [4]), the “persistence of pleurodesis result” value is “persists for at least a year” and the pleurodesis result is “relatively superior pleurodesis result”. Moreover, the pleurodesis entry in the data set on rabbits [1] (intrapleural injection of 0.5% silver nitrate (Texeira et al. 2003)) was “significant pleurodesis”. Besides, the sclerosing effects result with rabbits [1] (single intrapleural injection of 0.25% silver nitrate (Texeira et al. 2003)) is “no sclerosing effects”. The pleural inflammation result with rabbits [2] is given as “relatively intense pleural inflammation”. Also, in data set [3], the “adverse effects associated with injection into the pleural space” value was “severe pain, fever, and relatively large amount of effusion”.
